Reference: US20230202973A1, “BARNESIN A, DERIVATIVES AND USES THEREOF” (Leibniz-Institut Für Naturstoff-Forschung Und …, priority 2018, published 2023)
pIC50: −log10 of the molar value. Where two headings read alike, the source gives them in different places. Square brackets hold non-standard residues; d marks the D form. Peptide text beside a SMILES is read from it. * marks the point of attachment. Isovaleryl = CC(C)CC(=O)*

Tests used:
Cathepsin B [1] = molecular target: T1, Cathepsin B (Homo sapiens, UniProt P07858); settings: reported in literature; cells printed in nM; read-out: Cathepsin B, reported inhibitory activity as IC50 value; cited from earlier work
papain [2] = molecular target: T2, papain (Carica papaya, UniProt P00784); settings: reported in literature for known compounds; read-out: Papain, reported inhibitory activity as IC50 value; cited from earlier work
T2 construct: purchased Sigma-Aldrich P4762
T2 sequence (P00784 134-345): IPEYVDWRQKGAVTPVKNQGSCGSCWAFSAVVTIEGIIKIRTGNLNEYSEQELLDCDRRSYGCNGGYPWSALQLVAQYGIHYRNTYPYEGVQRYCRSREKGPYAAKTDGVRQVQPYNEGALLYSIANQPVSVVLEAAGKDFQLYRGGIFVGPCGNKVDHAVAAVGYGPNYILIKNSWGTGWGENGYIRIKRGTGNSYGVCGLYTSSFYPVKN

trypsin [3] = settings: reported in literature for known compounds; read-out: Trypsin, reported inhibitory activity as IC50 value; cited from earlier work
ficin = assay: Protease assay with azocasein: ficin; assay type: biochemical; settings: azocasein substrate, pH 7.2, n.i. = no inhibition
Description: (§1) Protease Assays with azocasein: Protease inhibition assays against the proteases papain, ficin, trypsin, pepsin and thermolysin were performed according to the protocol of Garcia-Carreño (loc. cit.) in a reaction buffer containing 25 mM TRIS-HCl, 0.15 M NaCl, pH 7.2 (or pH 3.5 for aspartic protease). The total assay volume was 47 μL buffer with 2 μL of the protease as well as 1 μL of suitable inhibitor or corresponding inhibitor solvent (100% MeoH or water). Final concentration of proteases was as follows: 2 mg/mL for papain (Sigma-Aldrich, P4762), 600 μg/mL for ficin (Sigma-Aldrich, F6008), 80 μg/mL for trypsin (Thermo Fisher, 23266), 60 mg/mL for pepsin (Sigma-Aldrich P6887)) and 2 μg/mL for thermolysin (Sigma-Aldrich, P1512).
(§2) Inhibitors were dissolved in 100% MeOH or water and added to the assay (1 μL); final concentration: 2% MeOH. Samples of control inhibitors were prepared as follows: (1) serine protease (trypsin): PMFS (2 mM) and soybean trypsin inhibitor (240 μM) (Sigma-Aldrich, T1021), (2) cysteine proteases (papain and ficin): iodacetamide (2 mM), (3) […] (pepsin): pepstatin A (1 μg/mL) (Sigma-Aldrich, P4265), (4) metalloprotease (thermolysin): EDTA (10 mM). […] Negative controls were performed with protease alone (without inhibitor) and MeOH at a final concentration of 2% (reference for activity of 100%). Extract absorbance controls were performed using inhibitor (1 μL in MeOH) without protease. Blanks were performed using 49 μL buffer and 1 μL MeOH.
(§3) Samples were incubated with buffer and suitable inhibitor (or without for negative controls) for 1 h at r.t. and the reaction was started afterward by adding 50 μl of […] substrate and incubated for 1 h at 37° C. After stopping the reaction with trichloracetic acid (TCA), the separation of the precipitate was accomplished by centrifugation at 6500 g for 5 min. The hydrolyzed substrate supernatant was incubated in an equal volume of 0.5 N NaOH for 5 min and the absorbance was measured at 440 nm. OD values of the protease control without inhibitor were used as reference for a 100% activity.
(§4) The log IC50 values were determined using the standard curves analyzing tool with four parameter logistic equation of SigmaPlot12 with technical triplicates. Propagation of error was calculated using the standard error and log IC50 values where the equation of error propagation is defined as Δy=0.43Δx/x.

Cathepsin B [4] = molecular target: T1, Cathepsin B; assay: Cathepsin B inhibition assay (Z-Arg-Arg-AMC); assay type: biochemical; settings: Z-Arg-Arg-AMC substrate, pH 6.0, n.i. = no inhibition
Description: Cathepsin B inhibition assay. Cathepsin B inhibition assay was determined according to Hiwasa et al. (loc. cit.) with minor changes. Cathepsin B was purchased from Sigma Aldrich (C0150) and stored in 50 mM sodium acetate, 1 mM EDTA, pH 5 (adjusted with acetic acid). Cathepsin B was activated by preincubation at 40° C. for 10 min in assay buffer (0.1 M sodium acetate 1.3 mM EDTA, pH 6.0 adjusted with acetic acid, 2 μM DTT, 2.6 mM cysteine and 0.05% Triton X100). […] Final concentration of cathepsin B was 0.1 mg/ml. […] After stopping the reaction with 85 μL buffer containing 100 mM sodium monochlor acetate, 30 mM sodium acetate, 70 mM acetic acid, the hydrolyzed substrate was detected at an excitation wavelength of 380 nm and a fluorescence wavelength of 450 nm, using a fluorophotometer. 1 μL of 1.5 mM leupeptin was used as enzyme inhibition control.

trypsin [5] = molecular target: T3, trypsin (Bos taurus, UniProt P00760); assay: Protease assay with azocasein: trypsin; assay type: biochemical; settings: azocasein substrate, pH 7.2; n.i. = no inhibition
T3 construct: purchased Thermo Fisher 23266
T3 sequence (P00760 24-246): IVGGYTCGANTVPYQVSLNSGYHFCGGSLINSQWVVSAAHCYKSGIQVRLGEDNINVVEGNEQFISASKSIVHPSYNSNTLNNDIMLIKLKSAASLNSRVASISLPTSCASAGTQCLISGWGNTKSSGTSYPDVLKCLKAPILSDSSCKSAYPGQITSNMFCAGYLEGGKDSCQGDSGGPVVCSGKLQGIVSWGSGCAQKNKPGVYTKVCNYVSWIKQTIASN
Description: as §1, §2, §3, §4

papain [6] = molecular target: T2, papain; assay: Protease assay with azocasein: papain; assay type: biochemical; settings: azocasein substrate, pH 7.2, n.i. = no inhibition
Description: as §1, §2, §3, §4

pepsin = molecular target: T4, pepsin (Sus scrofa, UniProt P00791); assay: Protease assay with azocasein: pepsin; assay type: biochemical; settings: azocasein substrate, pH 3.5; n.i. = no inhibition
T4 construct: purchased Sigma-Aldrich P6887
Description: as §1, §2, §3, §4

thermolysin = molecular target: T5, thermolysin (Bacillus thermoproteolyticus, UniProt P00800); assay: Protease assay with azocasein: thermolysin; assay type: biochemical; settings: azocasein substrate, pH 7.2; n.i. = no inhibition
T5 construct: purchased Sigma-Aldrich P1512
Description: as §1, §2, §3, §4

[7] = tested on: thermolysin (Sigma-Aldrich, P1512); settings: 10 mM EDTA
Description: Protease Assays with azocasein: Protease inhibition assays against the proteases papain, ficin, trypsin, pepsin and thermolysin were performed according to the protocol of Garcia-Carreño (loc. cit.) in a reaction buffer containing 25 mM TRIS-HCl, 0.15 M NaCl, pH 7.2 (or pH 3.5 for aspartic protease). The total assay volume was 47 μL buffer with 2 μL of the protease as well as 1 μL of suitable inhibitor or corresponding inhibitor solvent (100% MeoH or water). […]
Inhibitors were dissolved in 100% MeOH or water and added to the assay (1 μL); final concentration: 2% MeOH. […] Extract absorbance controls were performed using inhibitor (1 μL in MeOH) without protease. […]
Samples were incubated with buffer and suitable inhibitor (or without for negative controls) for 1 h at r.t. and the reaction was started afterward by adding 50 μl of […] substrate and incubated for 1 h at 37° C. […] The hydrolyzed substrate supernatant was incubated in an equal volume of 0.5 N NaOH for 5 min and the absorbance was measured at 440 nm. […]
as §4

T5 sequence (P00800 233-548): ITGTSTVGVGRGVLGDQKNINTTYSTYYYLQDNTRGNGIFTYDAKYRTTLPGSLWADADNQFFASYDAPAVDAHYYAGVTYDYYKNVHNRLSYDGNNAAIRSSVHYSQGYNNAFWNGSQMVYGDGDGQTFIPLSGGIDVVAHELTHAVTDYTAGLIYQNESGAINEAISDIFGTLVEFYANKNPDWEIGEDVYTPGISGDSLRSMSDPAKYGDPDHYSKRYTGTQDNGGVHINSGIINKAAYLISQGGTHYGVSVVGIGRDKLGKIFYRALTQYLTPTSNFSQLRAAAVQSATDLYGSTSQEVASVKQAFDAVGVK
T4 sequence (P00791 60-385): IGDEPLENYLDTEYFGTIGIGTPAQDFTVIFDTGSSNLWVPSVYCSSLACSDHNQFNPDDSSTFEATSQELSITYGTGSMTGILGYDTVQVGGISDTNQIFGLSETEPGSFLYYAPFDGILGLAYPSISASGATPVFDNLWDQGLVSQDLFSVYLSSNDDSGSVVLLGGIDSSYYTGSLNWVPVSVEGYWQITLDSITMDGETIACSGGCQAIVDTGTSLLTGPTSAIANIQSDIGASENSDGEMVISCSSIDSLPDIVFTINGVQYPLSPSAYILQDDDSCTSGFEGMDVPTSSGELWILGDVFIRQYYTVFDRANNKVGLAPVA

CC(C)CC(=O)N[C@H](Cc1ccc(O)cc1)C(=O)N[C@H](C(=O)N[C@@H](C=O)Cc1ccccc1)C(C)C [YM 51084] (Isovaleryl-[dY]-Val-[dF]-aldehyde)
IC50 (Cathepsin B [1]): 12 nM | pIC50 (papain [2]): 5.66

Cystatin
pIC50 (papain [2]): 7.54 | pIC50 (trypsin [3]): 5.46

CCCCCCCC(=O)N[C@@H](Cc1ccc(O)cc1)C(=O)N[C@@H](CCCNC(=N)N)CCC(=O)O [(R), 2,3,17,18-Tetrahydrobarnesin A, reference compound]
Ficin, inhibitory activity as IC50 value (ficin): n.i. | Cathepsin B, inhibitory activity as IC50 value (Cathepsin B [4]): n.i. | Trypsin, inhibitory activity as IC50 value (trypsin [5]): n.i. | Papain, inhibitory activity as IC50 value (papain [6]): n.i. | Pepsin, inhibitory activity as IC50 value (pepsin): n.i. | Thermolysin, inhibitory activity as IC50 value (thermolysin): n.i.

CCCCCCCC(=O)N[C@@H](Cc1ccc(O)cc1)C(=O)N[C@@H](CCCNC(=N)N)CCC(=O)OC [(S), 2,3-17,18-Tetrahydrobarnesin A methyl ester, reference compound]
Ficin, inhibitory activity as IC50 value (ficin): n.i. | Cathepsin B, inhibitory activity as IC50 value (Cathepsin B [4]): n.i. | Trypsin, inhibitory activity as IC50 value (trypsin [5]): n.i. | Papain, inhibitory activity as IC50 value (papain [6]): n.i. | Pepsin, inhibitory activity as IC50 value (pepsin): n.i. | Thermolysin, inhibitory activity as IC50 value (thermolysin): n.i.

O=C(O)CN(CCN(CC(=O)O)CC(=O)O)CC(=O)O [EDTA]
inhibition of enzyme activity (control inhibitor), thermolysin [7]: > 95%

CC(C)[C@H](NC(=O)c1ccc(O)cc1)C(=O)N[C@H](C(=O)N[C@H](C=O)CCCNC(=N)N)C(C)C [Tokaramide A]
IC50 (Cathepsin B [1]): 62.4 nM

CCCCC/C=C/C(=O)N[C@@H](Cc1ccc(O)cc1)C(=O)N[C@H](/C=C/C(=O)OCC)CCCN=C(N)N [Barnesin A ethyl ester (3), (E)-Oct-2-enoyl-tyrosine-vinylogous arginine ethyl ester]
pIC50 (ficin; read-out: Ficin, inhibitory activity as IC50 value): 5.46 | pIC50 (Cathepsin B [4]; read-out: Cathepsin B, inhibitory activity as IC50 value): 7.62 | Trypsin, inhibitory activity as IC50 value (trypsin [5]): n.i. | pIC50 (papain [6]; read-out: Papain, inhibitory activity as IC50 value): 5.54 | Pepsin, inhibitory activity as IC50 value (pepsin): n.i. | Thermolysin, inhibitory activity as IC50 value (thermolysin): n.i.
